Nine molecules from patent publication US11261177B2, “Benzoxazinone derivatives useful as herbicides” (REDAG CROP PROTECTION LTD, priority 2017, dated 2022) can be followed below.

SMILES strings stand for the structures. Where only a bound is given, the exact number is not on record here.

Common to all, as to assay type: in vivo
Experiment [1] deals with Stellaria media—Chickweed. Kind of experiment: Post-emergence herbicidal assay, 96 cell trays, glasshouse. Conditions: 168 h, second trial (Table 2), assessed 7 days after treatment, read-out: % control of plant growth; for pest or weed control at 200 g/ha: 0.2 kg/ha; for pest or weed control at 1000 g/ha: 1 kg/ha; for pest or weed control at 5000 g/ha: 5 kg/ha. How it is done:
(§1) The compounds were screened at three concentrations (0.2, 1 and 5 kg/ha) against 2 weed species (Stellaria media—Chickweed and Lolium perenne). The seeds were sown in the cells of 96 cell trays (4-6 seeds per cell). For the pre-emergence assay, 75 μL of a suspension of the test compound, at the above doses, was added on top of the soil 1 day after sowing. For the post-emergence assay, the seedlings were sprayed with 200 μL of a suspension of the test compound two weeks after sowing. The formulation used is 25% acetone and 75% water/0.01% Tween 20. Each treatment was replicated three times. The plants were kept in a glasshouse (uncontrolled conditions) and assessed 7 days after treatment. A small number of compounds were tested in a first trial. A larger number of compounds were tested in a second trial. The assessment was based on the % control of plant growth in each cell.

Experiment [2] relates to Lolium perenne. The description is as above. To be noted: 168 h, second trial (Table 2), Lollium, assessed 7 days after treatment, read-out: % control of plant growth; for pest or weed control at 200 g/ha: 0.2 kg/ha; for pest or weed control at 1000 g/ha: 1 kg/ha; for pest or weed control at 5000 g/ha: 5 kg/ha. How it is done:
as §1

Experiment [3] concerns Stellaria media—Chickweed. In words: Pre-emergence herbicidal assay, 96 cell trays, glasshouse. To be noted: 168 h, second trial (Table 2), assessed 7 days after treatment, read-out: % control of plant growth; for pest or weed control at 200 g/ha: 0.2 kg/ha; for pest or weed control at 1000 g/ha: 1 kg/ha; for pest or weed control at 5000 g/ha: 5 kg/ha. How it is done:
as §1

In experiment [4] the test system is Lolium perenne. The experiment is described as above. Conditions: 168 h, second trial (Table 2), Lollium, assessed 7 days after treatment, read-out: % control of plant growth; for pest or weed control at 200 g/ha: 0.2 kg/ha; for pest or weed control at 1000 g/ha: 1 kg/ha; for pest or weed control at 5000 g/ha: 5 kg/ha. How it is done:
as §1

For the molecule `C#CCN1C(=O)C2(CCC2)Oc2cc(F)c(N3C(=O)c4ccc(F)cc4C3=O)cc21` [Example 23], the pest or weed control at 200 g/ha in experiment [1] was 80 to 100%; in experiment [2], under 20%; in experiment [3] it was under 20%; in experiment [4], under 20%. The pest or weed control at 1000 g/ha was 80 to 100% in experiment [1], under 20% in experiment [2], 80 to 100% in experiment [3] and under 20% in experiment [4]. Further, the pest or weed control at 5000 g/ha in experiment [1] is 80 to 100%; in experiment [2] it was under 20%; in experiment [3], 80 to 100%; in experiment [4] it was 20 to 80%.

On to `C#CCN1C(=O)C2(CCC2)Oc2cc(F)c(N3C(=O)C=C(C(F)(F)F)C3=O)cc21` [Example 24], for which the pest or weed control at 200 g/ha in experiment [1], in experiment [2], in experiment [3] and in experiment [4] was under 20% each time. The pest or weed control at 1000 g/ha is under 20% in experiment [1], under 20% in experiment [2], 20 to 80% in experiment [3] and 20 to 80% in experiment [4]. The pest or weed control at 5000 g/ha in experiment [1] is under 20%; in experiment [2], under 20%; in experiment [3] it was 20 to 80%; in experiment [4], 20 to 80%.

For the molecule `C#CCN1C(=O)C2(CN(C(=O)OCc3ccccc3)C2)Oc2cc(F)c(N3C(=O)c4ccc(F)cc4C3=O)cc21` [Example 25], the pest or weed control at 200 g/ha in experiment [1] is under 20%; in experiment [2] it was under 20%; in experiment [3], 20 to 80%; in experiment [4], under 20%. Further, the pest or weed control at 1000 g/ha in experiment [1] is under 20%; in experiment [2], under 20%; in experiment [3], 20 to 80%; in experiment [4] it was under 20%. Also, the pest or weed control at 5000 g/ha is under 20% in experiment [1], under 20% in experiment [2], 20 to 80% in experiment [3] and under 20% in experiment [4].

Turning to `O=C1c2ccc(F)cc2C(=O)N1c1cc2c(cc1F)OC1(CC1)C(=O)N2CC#CI` [Example 30, 5-Fluoro-2-(7-fluoro-4-(3-iodoprop-2-yn-1-yl)-3-oxo-3,4-dihydrospiro[benzo[b][1,4]oxazine-2,1′-cyclopropan]-6-yl)isoindoline-1,3-dione], the pest or weed control at 200 g/ha was 80 to 100% in experiment [1], under 20% in experiment [2], 80 to 100% in experiment [3] and 20 to 80% in experiment [4]. Also, the pest or weed control at 1000 g/ha in experiment [1] was 80 to 100%; in experiment [2] it was under 20%; in experiment [3] it was 80 to 100%; in experiment [4] it was 20 to 80%. Further, the pest or weed control at 5000 g/ha is 80 to 100% in experiment [1], under 20% in experiment [2], 80 to 100% in experiment [3] and 80 to 100% in experiment [4].

`C#CCN1C(=O)C2(CCC2)Oc2cc(F)c(-n3c(=O)cc(C(F)(F)F)[nH]c3=O)cc21` [Example 33, 3-(7-Fluoro-3-oxo-4-(prop-2-yn-1-yl)-3,4-dihydrospiro[benzo[b][1,4]oxazine-2,1′-cyclobutan]-6-yl)-6-(trifluoromethyl)pyrimidine-2,4(1H,3H)-dione]: the pest or weed control at 200 g/ha in experiment [1], in experiment [2], in experiment [3] and in experiment [4] was under 20% in each case. The pest or weed control at 1000 g/ha in experiment [1] is under 20%; in experiment [2], under 20%; in experiment [3], 20 to 80%; in experiment [4] it was under 20%. Besides, the pest or weed control at 5000 g/ha was 20 to 80% in experiment [1], under 20% in experiment [2], 20 to 80% in experiment [3] and under 20% in experiment [4].

Consider `CC(C(=O)O)N1C(=O)C2(CC2)Oc2cc(F)c(N3C(=O)c4ccc(F)cc4C3=O)cc21` (stereo not drawn) [Example 35], for which the pest or weed control at 200 g/ha is 80 to 100% in experiment [1], under 20% in experiment [2], under 20% in experiment [3] and under 20% in experiment [4]. For the same molecule, the pest or weed control at 1000 g/ha in experiment [1] is 80 to 100%; in experiment [2], 20 to 80%; in experiment [3], 20 to 80%; in experiment [4] it was 20 to 80%. Also, the pest or weed control at 5000 g/ha in experiment [1] lay in the range of 80 to 100%; in experiment [2] it was 20 to 80%; in experiment [3] it was 20 to 80%; in experiment [4], 20 to 80%.

`O=C1c2ccc(F)cc2C(=O)N1c1cc2c(cc1F)OC1(CC1)C(=O)N2CC1CO1` (stereo not drawn) [Example 36, 5-Fluoro-2-(7-fluoro-4-(oxiran-2-ylmethyl)-3-oxo-3,4-dihydrospiro[benzo[b][1,4]oxazine-2,1′-cyclopropan]-6-yl)isoindoline-1,3-dione]: the pest or weed control at 200 g/ha in experiment [1] was 80 to 100%; in experiment [2], under 20%; in experiment [3], under 20%; in experiment [4] it was under 20%. Further, the pest or weed control at 1000 g/ha in experiment [1] fell in the range of 80 to 100%; in experiment [2], 20 to 80%; in experiment [3], 20 to 80%; in experiment [4], 20 to 80%. For the same molecule, the pest or weed control at 5000 g/ha lay in the range of 80 to 100% in experiment [1], 20 to 80% in experiment [2], 80 to 100% in experiment [3] and 20 to 80% in experiment [4].

On to `C#CCN1C(=O)C2(CC2)Oc2cc(F)c(-n3c(=O)cc(C(F)(F)F)n(CC#C)c3=O)cc21` [Example 41], for which the pest or weed control at 200 g/ha was 80 to 100% in experiment [1], under 20% in experiment [2], 80 to 100% in experiment [3] and 80 to 100% in experiment [4]. Also, the pest or weed control at 1000 g/ha in experiment [1] was 80 to 100%; in experiment [2] it was 20 to 80%; in experiment [3], 80 to 100%; in experiment [4] it was 80 to 100%. The pest or weed control at 5000 g/ha in experiment [1], in experiment [2], in experiment [3] and in experiment [4] was 80 to 100% each time.

On to `C#CCN1C(=O)C2(CC2)Oc2cc(F)c(-n3c(=O)cc(C(F)(F)F)n(CC(=O)OC)c3=O)cc21` [Example 42], for which the pest or weed control at 200 g/ha was 80 to 100% in experiment [1], 20 to 80% in experiment [2], 20 to 80% in experiment [3] and under 20% in experiment [4]. The pest or weed control at 1000 g/ha in experiment [1] was 80 to 100%; in experiment [2], 20 to 80%; in experiment [3], 80 to 100%; in experiment [4], 20 to 80%. Moreover, the pest or weed control at 5000 g/ha in experiment [1] lay in the range of 80 to 100%; in experiment [2], 80 to 100%; in experiment [3], 80 to 100%; in experiment [4], 20 to 80%.
